Assay results as given in patent publication US20030095958A1, “Inhibitors of bace” (priority 2001, published 2003).

Target: BACE (Homo sapiens, UniProt P56817)
Assay: Ki Determination for the Inhibition of BACE (FS-1 peptide fluorescence cleavage assay)
Type: biochemical
Settings: apparent Ki; 50 nM BACE, 10 μM FS-1 substrate, 0.1M sodium acetate pH 4.5
How it was run: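 Apparent Ki values derive from fitting fluorescence progress data (355 nm excitation, 495 nm emission) of FS-1 peptide cleavage to an integrated competitive tight-binding model. Reactions held 50 nM BACE, 10 μM substrate and inhibitor in 2% DMSO, pH 4.5 acetate buffer, with a 15 min enzyme-compound preincubation at room temperature.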

Sequence of BACE (P56817 46-501): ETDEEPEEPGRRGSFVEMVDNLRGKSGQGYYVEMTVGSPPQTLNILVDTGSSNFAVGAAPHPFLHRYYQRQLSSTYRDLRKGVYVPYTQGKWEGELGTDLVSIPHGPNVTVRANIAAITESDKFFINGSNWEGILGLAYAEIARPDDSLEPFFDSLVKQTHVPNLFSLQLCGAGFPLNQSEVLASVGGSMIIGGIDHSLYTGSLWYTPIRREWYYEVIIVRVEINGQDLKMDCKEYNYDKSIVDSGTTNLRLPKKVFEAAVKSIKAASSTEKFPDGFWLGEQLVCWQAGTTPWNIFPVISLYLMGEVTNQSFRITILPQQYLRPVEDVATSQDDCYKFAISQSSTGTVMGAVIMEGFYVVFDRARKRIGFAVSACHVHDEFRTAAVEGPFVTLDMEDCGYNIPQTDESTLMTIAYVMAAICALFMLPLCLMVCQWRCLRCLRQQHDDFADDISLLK

Row | Ki | SMILES
1 | < 3 µM | COc1cc(COc2ccc3c(c2)c2c(n3C(=O)c3cccc4ccccc34)CNCC2)cc(OC)c1 [Compound 526, [6-(3,5-Dimethoxy-benzyloxy)-1,2,3,4-tetrahydro-b-carbolin-9-yl]-naphthalen-1-yl-methanone]
2 | < 3 µM | COc1cc(COc2ccc3c(c2)c2c(n3C(=O)c3ccc4ccccc4c3)CNCC2)cc(OC)c1 [Compound 527, [6-(3,5-Dimethoxy-benzyloxy)-1,2,3,4-tetrahydro-b-carbolin-9-yl]-naphthalen-2-yl-methanone]
3 | < 3 µM | O=C(c1cccc2ccccc12)n1c2c(c3cc(OCc4ccccc4I)ccc31)CCNC2 [Compound 528, [6-(2-Iodo-benzyloxy)-1,2,3,4-tetrahydro-b-carbolin-9-yl]-naphthalen-1-yl-methanone]
4 | < 3 µM | O=C(c1cccc2ccccc12)n1c2c(c3cc(OCc4ccccc4OC(F)F)ccc31)CCNC2 [Compound 529, [6-(2-Difluoromethoxy-benzyloxy)-1,2,3,4-tetrahydro-b-carbolin-9-yl]-naphthalen-1-yl-methanone]
5 | < 3 µM | O=C(c1ccc2ccccc2c1)n1c2c(c3cc(OCc4ccccc4OC(F)F)ccc31)CCNC2 [Compound 530, [6-(2-Difluoromethoxy-benzyloxy)-1,2,3,4-tetrahydro-b-carbolin-9-yl]-naphthalen-2-yl-methanone]
6 | < 3 µM | N#Cc1ccccc1-c1ccc(COc2ccc3c(c2)c2c(n3Cc3ccc4ccccc4c3)CNCC2)cc1 [Compound 531, 4′-(9-Naphthalen-2-ylmethyl-2,3,4,9-tetrahydro-1H-b-carbolin-6-yloxymethyl)-biphenyl-2-carbonitrile]
7 | < 3 µM | N#Cc1ccccc1-c1ccc(COc2ccc3c(c2)c2c(n3C(=O)c3cccc4ccccc34)CNCC2)cc1 [Compound 532, 4′-[9-(Naphthalene-1-carbonyl)-2,3,4,9-tetrahydro-1H-b-carbolin-6-yloxymethyl]-biphenyl-2-carbonitrile]
8 | < 3 µM | FC(F)(F)c1ccc(COc2ccc3c(c2)c2c(n3Cc3cccc4ccccc34)CNCC2)cc1 [Compound 533, 9-Naphthalen-1-ylmethyl-6-(4-trifluoromethyl-benzyloxy)-2,3,4,9-tetrahydro-1H-b-carboline]
9 | < 3 µM | FC(F)(F)c1ccc(COc2ccc3c(c2)c2c(n3Cc3ccc4ccccc4c3)CNCC2)cc1 [Compound 534, 9-Naphthalen-2-ylmethyl-6-(4-trifluoromethyl-benzyloxy)-2,3,4,9-tetrahydro-1H-b-carboline]
10 | < 3 µM | FC(F)(F)c1ccccc1COc1ccc2c(c1)c1c(n2Cc2ccc3ccccc3c2)CNCC1 [Compound 535, 9-Naphthalen-2-ylmethyl-6-(2-trifluoromethyl-benzyloxy)-2,3,4,9-tetrahydro-1H-b-carboline]
11 | < 3 µM | O=C(c1ccc2ccccc2c1)n1c2c(c3cc(OCc4ccc(C(F)(F)F)cc4)ccc31)CCNC2 [Compound 536, Naphthalen-2-yl-[6-(4-trifluoromethyl-benzyloxy)-1,2,3,4-tetrahydro-b-carbolin-9-yl]-methanone]
12 | < 3 µM | FC(F)(F)c1cccc(COc2ccc3c(c2)c2c(n3Cc3ccc4ccccc4c3)CNCC2)c1 [Compound 537, 9-Naphthalen-2-ylmethyl-6-(3-trifluoromethyl-benzyloxy)-2,3,4,9-tetrahydro-1H-b-carboline]
